This passage reports IC50 results from US9650379B2 (CHONG KUN DANG PHARMACEUTICAL CORP., priority 2013, dated 2017).

The target of one assay is T1, HDAC6 human recombinant (Homo sapiens, UniProt Q9UBN7).
T1 construct: purchased Calbiochem 382180
T1 sequence (Q9UBN7 1-1215): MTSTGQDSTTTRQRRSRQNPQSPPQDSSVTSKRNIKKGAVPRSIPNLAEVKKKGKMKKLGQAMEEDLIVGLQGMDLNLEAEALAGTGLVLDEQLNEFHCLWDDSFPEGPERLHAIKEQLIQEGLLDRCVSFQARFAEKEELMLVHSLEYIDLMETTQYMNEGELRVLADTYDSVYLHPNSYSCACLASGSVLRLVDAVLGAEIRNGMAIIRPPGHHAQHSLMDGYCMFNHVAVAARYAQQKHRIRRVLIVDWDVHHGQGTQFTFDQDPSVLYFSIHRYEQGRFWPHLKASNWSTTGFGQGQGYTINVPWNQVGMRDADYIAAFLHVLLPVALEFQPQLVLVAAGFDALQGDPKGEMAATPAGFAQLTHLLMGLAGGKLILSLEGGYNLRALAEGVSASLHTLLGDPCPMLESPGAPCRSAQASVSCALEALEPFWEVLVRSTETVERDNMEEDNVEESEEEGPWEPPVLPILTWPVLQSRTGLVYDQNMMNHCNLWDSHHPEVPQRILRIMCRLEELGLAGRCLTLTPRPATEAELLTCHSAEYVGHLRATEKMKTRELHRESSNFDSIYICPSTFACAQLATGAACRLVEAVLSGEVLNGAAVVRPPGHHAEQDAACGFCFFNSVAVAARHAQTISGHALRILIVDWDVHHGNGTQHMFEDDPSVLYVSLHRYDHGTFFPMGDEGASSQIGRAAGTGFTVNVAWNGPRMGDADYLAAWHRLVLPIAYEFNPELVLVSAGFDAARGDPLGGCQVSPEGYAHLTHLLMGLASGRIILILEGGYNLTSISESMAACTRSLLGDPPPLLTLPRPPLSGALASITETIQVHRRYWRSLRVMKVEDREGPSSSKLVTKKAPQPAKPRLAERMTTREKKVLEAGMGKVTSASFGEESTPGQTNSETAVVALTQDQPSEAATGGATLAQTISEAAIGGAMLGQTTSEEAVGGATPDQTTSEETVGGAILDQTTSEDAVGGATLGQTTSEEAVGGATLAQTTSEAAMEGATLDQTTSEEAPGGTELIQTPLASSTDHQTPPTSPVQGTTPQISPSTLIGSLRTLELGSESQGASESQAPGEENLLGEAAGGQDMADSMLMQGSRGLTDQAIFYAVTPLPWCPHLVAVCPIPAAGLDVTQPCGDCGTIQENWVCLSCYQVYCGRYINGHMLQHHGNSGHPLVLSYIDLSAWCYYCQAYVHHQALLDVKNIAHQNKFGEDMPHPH
As to the kind of experiment: Inhibition of HDAC6 activity (fluorimetric assay). Format: biochemical. Conditions: test concentrations 0.1, 1, 10, 100 and 1000 nM; 37° C., 60 minutes. The procedure:
(§1) Assays were performed using a HDAC1 fluorimetric drug discovery assay kit (Enzolifesciences: BML-AK511) and a HDAC6 human recombinant (Calbiochem: 382180). The assay mixture of the kit was treated with a test compound at concentrations of 100, 1000 and 10000 nM for HDAC1 assay and concentrations of 0.1, 1, 10, 100 and 1000 nM for HDAC6 assay. The treated assay mixture was allowed to react at 37° C. for 60 minutes, and then was treated with a developer and allowed to stand at 37° C. for 30 minutes, followed by quantification of the fluorescence.

In a further assay the target is T2, HDAC1 (Homo sapiens, UniProt Q13547).
T2 construct: purchased Enzolifesciences BML-AK511
T2 sequence (Q13547 whole entry): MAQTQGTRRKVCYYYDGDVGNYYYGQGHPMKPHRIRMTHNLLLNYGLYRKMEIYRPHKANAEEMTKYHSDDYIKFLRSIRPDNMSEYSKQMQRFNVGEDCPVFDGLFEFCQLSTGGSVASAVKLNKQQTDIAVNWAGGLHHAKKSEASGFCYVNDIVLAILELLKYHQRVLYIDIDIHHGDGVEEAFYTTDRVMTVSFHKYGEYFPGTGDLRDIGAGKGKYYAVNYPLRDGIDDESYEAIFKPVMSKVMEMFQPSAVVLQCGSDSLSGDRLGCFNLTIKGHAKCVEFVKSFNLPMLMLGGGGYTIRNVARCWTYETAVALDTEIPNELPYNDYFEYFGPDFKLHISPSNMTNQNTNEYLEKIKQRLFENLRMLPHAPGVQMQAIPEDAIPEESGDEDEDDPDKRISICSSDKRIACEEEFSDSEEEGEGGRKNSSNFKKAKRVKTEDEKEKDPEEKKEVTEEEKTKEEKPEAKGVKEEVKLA
As to the kind of experiment: Inhibition of HDAC1 activity (HDAC1 fluorimetric drug discovery assay kit). The class given is biochemical. Conditions: test concentrations 100, 1000 and 10000 nM; 37° C., 60 minutes. The procedure:
as §1

For the molecule `CC(C)(F)CN1CC=C(c2ccnc3c2ccn3Cc2ccc(C(=O)NO)cc2)CC1` [Compound 630, 4-((4-(1-(2-fluoro-2-methylpropyl)-1,2,3,6-tetrahydropyridin-4-yl)-1H-pyrrolo[2,3-b]pyridin-1-yl)methyl)-N-hydroxybenzamide], the IC50 amounted to 8 nM on HDAC6 human recombinant and 1090 nM against HDAC1.

Take `O=C(NO)c1ccc(Cn2ccc3c(N4CCN(Cc5cccnc5)CC4)ccnc32)cc1` [Compound 849, N-hydroxy-4-((4-(4-(pyridin-3-ylmethyl)piperazin-1-yl)-1H-pyrrolo[2,3-b]pyridin-1-yl)methyl)benzamide]: the IC50 at HDAC6 human recombinant is 11.7 nM; against HDAC1, 290 nM.

Take `O=C(NO)c1ccc(Cn2ccc3ccc(C4=CCOCC4)nc32)cc1` [Compound 743, 4-((6-(3,6-dihydro-2H-pyran-4-yl)-1H-pyrrolo[2,3-b]pyridin-1-yl)methyl)-N-hydroxybenzamide]: the IC50 is 25 nM on HDAC6 human recombinant and 190 nM against HDAC1.

In the case of `O=C(NO)c1ccc(Cn2ccc3cc(-c4cccnc4)cnc32)cc1` [Compound 103], the results for the IC50 on HDAC6 human recombinant and on HDAC1 were 0.26 nM and 382 nM, respectively.

With `O=C(NO)c1ccc(Cn2ccc3c(N4CCN(Cc5cccc(F)c5)CC4)ccnc32)cc1` [Compound 848, 4-((4-(4-(3-fluorobenzyl)piperazin-1-yl)-1H-pyrrolo[2,3-b]pyridin-1-yl)methyl)-N-hydroxybenzamide], the IC50 at HDAC6 human recombinant is 9.1 nM; against HDAC1, 850 nM.

With `O=C(NO)c1ccc(Cn2ccc3c(N4CCN(Cc5ccccc5)CC4)ccnc32)cc1` [Compound 704, 4-((4-(4-benzylpiperazin-1-yl)-1H-pyrrolo[2,3-b]pyridin-1-yl)methyl)-N-hydroxybenzamide], the values for the IC50 on HDAC6 human recombinant and at HDAC1 were 9 nM and 620 nM, respectively.

Take `O=C(NO)c1ccc(Cn2ccc3cc(C4CCN(Cc5cccc(C(F)(F)F)c5)CC4)cnc32)cc1` [Compound 871, N-hydroxy-4-((5-(1-(3-(trifluoromethyl)benzyl)piperidin-4-yl)-1H-pyrrolo[2,3-b]pyridin-1-yl)methyl)benzamide]: the IC50 at HDAC6 human recombinant was 92.7 nM; on HDAC1 it was 3240 nM.

Turning to `COc1cccc(CN2CCC(c3ccnc4c3ccn4Cc3ccc(C(=O)NO)cc3)CC2)c1` [Compound 859, N-hydroxy-4-((4-(1-(3-methoxybenzyl)piperidin-4-yl)-1H-pyrrolo[2,3-b]pyridin-1-yl)methyl)benzamide], the IC50 on HDAC6 human recombinant turned out to be 6 nM; against HDAC1, 330 nM.

For the molecule `CC(CC(=O)O)N1CCC(c2ccnc3c2ccn3Cc2ccc(C(=O)NO)cc2)CC1` (stereo not drawn) [Compound 1015, 3-(4-(1-(4-(hydroxycarbamoyl)benzyl)-1H-pyrrolo[2,3-b]pyridin-4-yl)piperidin-1-yl)butanoic acid], the 50% inhibitory concentration (IC50) on HDAC6 human recombinant is 8.5 nM; on HDAC1, 670 nM.

With `CC(C)(C)OC(=O)N1CC=C(c2ccc3c(ccn3Cc3ccc(C(=O)NO)cc3)n2)CC1` [Compound 758, tert-butyl 4-(1-(4-(hydroxycarbamoyl)benzyl)-1H-pyrrolo[3,2-b]pyridin-5-yl)-5,6-dihydropyridine-1(2H)-carboxylate], the IC50 at HDAC6 human recombinant is 8 nM; against HDAC1, 1630 nM.

With `O=C(NO)c1ccc(Cn2ccc3c(-c4ccccc4)ccnc32)cc1` [Compound 656, N-hydroxy-4-((4-phenyl-1H-pyrrolo[2,3-b]pyridin-1-yl)methyl)benzamide], the half-inhibitory concentration (IC50) amounted to 16 nM at HDAC6 human recombinant and 1350 nM at HDAC1.

As to `O=C(NO)c1ccc(Cn2ccc3c(N4CCN(c5ccc(C(F)(F)F)cn5)CC4)ccnc32)cc1` [Compound 700, N-hydroxy-4-((4-(4-(5-(trifluoromethyl)pyridin-2-yl)piperazin-1-yl)-1H-pyrrolo[2,3-b]pyridin-1-yl)methyl)benzamide], the IC50 at HDAC6 human recombinant was 41 nM; at HDAC1, 4240 nM.

For the molecule `O=C(NO)c1ccc(Cn2ccc3c(N4CC5CCC(C4)N5Cc4cccnc4)ccnc32)cc1` [Compound 1019, N-hydroxy-4-((4-(8-(pyridin-3-ylmethyl)-3,8-diazabicyclo[3.2.1]octan-3-yl)-1H-pyrrolo[2,3-b]pyridin-1-yl)methyl)benzamide], the IC50 amounted to 6.8 nM at HDAC6 human recombinant and 260 nM at HDAC1.

As for `CC(C)(O)CN1CCC(c2ccnc3c2ccn3Cc2ccc(C(=O)NO)cc2)CC1` [Compound 812, N-hydroxy-4-((4-(1-(2-hydroxy-2-methylpropyl)piperidin-4-yl)-1H-pyrrolo[2,3-b]pyridin-1-yl)methyl)benzamide], the figures for the IC50 at HDAC6 human recombinant and against HDAC1 were 5 nM and 150 nM, respectively.

As for `CC(C)(C)CCN1CCN(c2cnc3c(ccn3Cc3ccc(C(=O)NO)cc3)c2)CC1` [Compound 862, 4-((5-(4-(3,3-dimethylbutyl)piperazin-1-yl)-1H-pyrrolo[2,3-b]pyridin-1-yl)methyl)-N-hydroxybenzamide], the IC50 was 12.1 nM on HDAC6 human recombinant and 1430 nM on HDAC1.

`O=C(NO)c1ccc(Cn2ccc3cc(C4CCN(Cc5cncnc5)CC4)cnc32)cc1` [Compound 880, N-hydroxy-4-((5-(1-(pyrimidin-5-ylmethyl)piperidin-4-yl)-1H-pyrrolo[2,3-b]pyridin-1-yl)methyl)benzamide]: the IC50 amounted to 6 nM on HDAC6 human recombinant and 770 nM against HDAC1.

With `O=C(NO)c1ccc(Cn2ccc3cc(C4CCN(Cc5cccnc5)CC4)cnc32)cc1` [Compound 840, N-hydroxy-4-((5-(1-(pyridin-3-ylmethyl)piperidin-4-yl)-1H-pyrrolo[2,3-b]pyridin-1-yl)methyl)benzamide], the 50% inhibitory concentration (IC50) on HDAC6 human recombinant amounted to 4.1 nM; against HDAC1, 610 nM.

Turning to `O=C(NO)c1ccc(Cn2ccc3cc(C4=CCCCC4)cnc32)cc1` [Compound 648, 4-((5-(cyclohex-1-en-1-yl)-1H-pyrrolo[2,3-b]pyridin-1-yl)methyl)-N-hydroxybenzamide], the IC50 on HDAC6 human recombinant worked out at 18 nM; against HDAC1, 3550 nM.

Regarding `O=C(NO)c1ccc(Cn2ccc3cc(-c4cncnc4)cnc32)cc1` [Compound 124, N-hydroxy-4-((5-(pyrimidin-5-yl)-1H-pyrrolo[2,3-b]pyridin-1-yl)methyl)benzamide], the half-inhibitory concentration (IC50) at HDAC6 human recombinant worked out at 120 nM; against HDAC1, 540 nM.

For the molecule `CC1(C)CC=C(c2cnc3c(ccn3Cc3ccc(C(=O)NO)cc3)c2)CC1` [Compound 649], the concentration for half-maximal inhibition (IC50) worked out at 93 nM at HDAC6 human recombinant and 7050 nM against HDAC1.

Regarding `O=C(NO)c1ccc(Cn2ccc3c(C4CCN(Cc5cccc(F)c5)CC4)ccnc32)cc1` [Compound 870, 4-((4-(1-(3-fluorobenzyl)piperidin-4-yl)-1H-pyrrolo[2,3-b]pyridin-1-yl)methyl)-N-hydroxybenzamide], the figures for the half-inhibitory concentration (IC50) at HDAC6 human recombinant and against HDAC1 were 20.6 nM and 330 nM, respectively.

Consider `CC1CCN(c2cnc3c(ccn3Cc3ccc(C(=O)NO)cc3)c2)CC1` [Compound 805, N-hydroxy-4-((5-(4-methylpiperidin-1-yl)-1H-pyrrolo[2,3-b]pyridin-1-yl)methyl)benzamide], for which the IC50 at HDAC6 human recombinant worked out at 38 nM; against HDAC1, 1610 nM.

Take `O=C(NO)c1ccc(Cn2ccc3c(N4CCN(Cc5ccncc5)CC4)ccnc32)cc1` [Compound 850, N-hydroxy-4-((4-(4-(pyridin-4-ylmethyl)piperazin-1-yl)-1H-pyrrolo[2,3-b]pyridin-1-yl)methyl)benzamide]: the results for the half-inhibitory concentration (IC50) on HDAC6 human recombinant and at HDAC1 were 4.4 nM and 220 nM, respectively.

In the case of `CC(C)(O)CN1CC2(CCN(c3ccnc4c3ccn4Cc3ccc(C(=O)NO)cc3)CC2)C1` [Compound 1025, N-hydroxy-4-((4-(2-(2-hydroxy-2-methylpropyl)-2,7-diazaspiro[3.5]nonan-7-yl)-1H-pyrrolo[2,3-b]pyridin-1-yl)methyl)benzamide], the IC50 came to 1.1 nM on HDAC6 human recombinant and 170 nM on HDAC1.

Usually IC50 stands for the point on the concentration scale where inhibition reaches its midpoint.
